16 compounds from PubChem BioAssay (NCI) can be followed below.

Holding throughout (test): NCI anticancer screen, dose series, 48 h
The test system of experiment [1] is MALME-3M melanoma.
Experiment [2] deals with SNB-75 CNS.
Experiment [3] deals with SF-268 CNS.
Experiment [4] concerns 786-0 renal.
Experiment [5] deals with A498 renal.
For experiment [6], the system named is NCI-H460 lung.
The subject of experiment [7] is SK-MEL-5 melanoma.
The test system of experiment [8] is OVCAR-5 ovarian.
The test system of experiment [9] is M14 melanoma.

Molecules are shown by their SMILES.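 A five-concentration, 48-hour dose response in 96-well plates underlies each endpoint, interpolated linearly between surrounding concentrations. Definition used: TGI = concentration required for complete inhibition of growth.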 Where only a bound is given, the exact number is not on record here.

Consider `CN1CCC(=O)/C(=C/c2ccccc2)C1`, for which the TGI was 35.4 µM in experiment [1]; 20.8 µM in [2]; 43.2 µM in experiment [3]; 25.2 µM in experiment [4]; 33 µM in experiment [5]; 41.8 µM in experiment [6]. Further, the TGI worked out at 33.4 µM in experiment [7], 29.3 µM in experiment [8] and 26.7 µM in experiment [9].

Turning to `CN(C)C(=S)/N=c1\sn(C)/c(=N\C(=S)N(C)C)n1C`, the TGI in [1] is 75.7 µM; in experiment [2] it was above 100 µM; in experiment [3] it was above 100 µM; in [4], above 100 µM; in [5] it was above 100 µM; in experiment [6], above 100 µM. The TGI in experiment [7], in experiment [8] and in experiment [9] was above 100 µM each time.

Consider `Cc1cc2c(=O)c3ccccc3[nH]c2c(C(N)=O)c1C`, for which the TGI in experiment [1], in experiment [2], in experiment [3], in experiment [4], in experiment [6] and in [7] was above 100 µM throughout. Also, the TGI in experiment [8] and in experiment [9] was above 100 µM in each case.

As for `CC12CCC(=O)C[C@H]1CCC(OC=O)C2Br` (stereo partly specified), the TGI in experiment [1], in experiment [2], in experiment [3], in experiment [4], in experiment [5] and in experiment [6] was above 100 µM each time. The TGI in [7], in experiment [8] and in [9] was above 100 µM each time.

For the compound `COC(=O)C(=Cc1cc(OC)c(OC)c(OC)c1-c1cc2c(cc1C1(C)OCCS1)OCO2)C(=O)OC` (stereo unspecified), the TGI in experiment [1], in experiment [3], in experiment [4], in experiment [6], in experiment [7] and in experiment [8] was above 100 µM throughout.

Regarding `COc1cc(OC)c2c(=O)cc(-c3ccc(OC)c(OC)c3OC)oc2c1`, the TGI was above 100 µM in experiment [1]; 45.3 µM in [2]; above 100 µM in experiment [3]; above 100 µM in experiment [4]; above 100 µM in experiment [8]; above 100 µM in experiment [9].

As to `O=C1N=C2Sc3ccc4ccccc4c3N2C1=O`, the TGI was 47.9 µM in experiment [1]; 40.7 µM in experiment [2]; 52.3 µM in [3]; 36.1 µM in experiment [4]; 70.2 µM in [6]; 58 µM in [7]. Further, the TGI in [8] is above 100 µM; in experiment [9] it was 73.8 µM.

For the compound `O=C(/C(=C/c1ccc(Cl)cc1)c1ccccc1)c1ccccc1`, the TGI in [1] worked out at 31.3 µM; in experiment [2], 69.4 µM; in [3] it was 41.8 µM; in experiment [4], 56.4 µM; in experiment [5], 44.9 µM; in experiment [6], 34.8 µM. Moreover, the TGI in [8] worked out at 42.3 µM; in [9] it was 31.4 µM.

In the case of `COC(=O)/C(=C/c1ccc(OC)cc1)C(C(=O)O)=C1CCCC1`, the TGI in experiment [2], in [4], in experiment [5], in [6], in experiment [7] and in experiment [8] was above 100 µM throughout. In experiment [9], this compound gave a TGI above 100 µM.

On to `c1ccc2c(OCCSCCCCCCCCCCSCCOc3cccc4ccccc34)cccc2c1`, for which the TGI in experiment [1], in experiment [2], in [3], in [4], in experiment [5] and in [6] was above 100 µM each time. For the same compound, the TGI in experiment [7] and in experiment [8] was above 100 µM each time.

`Cc1ccccc1C(=O)c1cc(O)ccc1O`: the TGI in [1], in experiment [2], in [3], in experiment [4], in experiment [5] and in experiment [6] was above 100 µM in each case. Besides, the TGI in experiment [7], in experiment [8] and in [9] was above 100 µM each time.

Take `COc1c(O)c2c(=O)cc3c4c5c(cc(=O)c6c(O)c(OC)c(CC(C)O)c(c(c1CC(C)O)c24)c65)OCO3` (stereo unspecified): the TGI is 1.27 µM in experiment [1]; 7.56 µM in experiment [2]; 5.97 µM in experiment [3]; 11.1 µM in experiment [4]; 2.32 µM in experiment [6]; 2.94 µM in experiment [7]. The values for the TGI in [8] and in experiment [9] were 9.13 µM and 3.57 µM, respectively.

With `O=C(CC1C(=O)Nc2ccccc2S1=O)Nc1cc(Cl)ccc1Cl` (stereo unspecified), the TGI in experiment [1], in [2], in experiment [3], in [4], in experiment [5] and in experiment [6] was above 100 µM in each case. Moreover, the TGI in experiment [7], in [8] and in experiment [9] was above 100 µM throughout.

On to `COc1ccc2c(c1OCC(=O)O)C(=O)C(CCC(=O)O)CC2` (stereo unspecified), for which the TGI in experiment [2], in experiment [4], in experiment [5], in [6], in experiment [7] and in [9] was above 100 µM each time.

With `COCC(OC)C(CC=C(C#N)C#N)OC` (stereo unspecified), the TGI in [1], in [3], in experiment [4], in experiment [5], in experiment [7] and in [8] was above 100 µM each time. Also, the TGI in experiment [9] is above 100 µM.

Consider `C/C(CC(=O)Nc1ccc(C)c(C)c1)=N\N(c1ccccc1)c1ccccc1`, for which the TGI in experiment [1], in experiment [2], in experiment [3], in [4], in experiment [5] and in experiment [6] was above 100 µM each time. In addition, the TGI in [7], in [8] and in experiment [9] was above 100 µM throughout.
